Laboratory results taken from PMC6057649, “Development of NanoLuc-PEST expressing Leishmania mexicana as a new drug discovery tool for axenic- and intramacrophage-based assays” (PLoS Neglected Tropical Diseases, 2018).

Test system: NanoLuc-PEST expressing L. mexicana axenic amastigotes
Test: microbe, parasite or virus in culture
Format: cell-based
Settings: for viability at 2 µM / viability at 10 µM: Leishmania mexicana, read-out: Relative Bioluminescence (%); for viability at 2 µM / viability at 10 µM / Relative Bioluminescence (%): 72 hours, relative to DMSO only control, n = 4

Compound CO[C@H]1/C=C/O[C@@]2(C)Oc3c(C)c(O)c4c(O)c(c(/C=N/N5CCN(C)CC5)c(O)c4c3C2=O)NC(=O)/C(C)=C\C=C\[C@H](C)[C@H](O)[C@@H](C)[C@@H](O)[C@@H](C)[C@H](OC(C)=O)[C@@H]1C [MMV688775, Rifampicin, reference compound] has a viability at 2 µM (2 µM compound) of 47.6% and a viability at 10 µM (10 µM compound) of 2.74%.
With Cc1cccnc1NC(=O)c1cccc(OCc2c(C)noc2C)c1 [MMV688793] the “Relative Bioluminescence (%)” value (2 µM compound) was 74.59% and the “Relative Bioluminescence (%)” value (10 µM compound) was 52.13%.
O=C(NCCc1ccn(-c2ccccc2)n1)C1CCCCC1 [MMV688795] was tested, and the “Relative Bioluminescence (%)” value (2 µM compound) was 79.12% and the “Relative Bioluminescence (%)” value (10 µM compound) was 86.70%.
For O=C(NCc1nnc2n1CCCCC2)c1ccc(-c2ccc(F)cc2)o1 [MMV688796], the “Relative Bioluminescence (%)” value (2 µM compound) was 88.65% and the “Relative Bioluminescence (%)” value (10 µM compound) was 91.91%.
In the case of CC1CCCCN1C(=O)NCCc1coc(-c2ccc(F)cc2)n1 (stereo not shown) [MMV688797], the “Relative Bioluminescence (%)” value (2 µM compound) is reported as 76.99% and the “Relative Bioluminescence (%)” value (10 µM compound) is reported as 71.92%.
For CS(=O)(=O)c1ccccc1C(=O)N(Cc1ccccc1)c1ccccc1 [MMV688798], the “Relative Bioluminescence (%)” value (2 µM compound) was 64.37% and the “Relative Bioluminescence (%)” value (10 µM compound) was 62.11%.
With COc1ccc2nccc(NC(=O)C3CCN(CCc4ccc(Cl)cc4)CC3)c2n1 [MMV688844] the “Relative Bioluminescence (%)” value (2 µM compound) was 77.54% and the “Relative Bioluminescence (%)” value (10 µM compound) was 91.56%.
With O=C(N[C@H](Cc1ccccc1)C(=O)Nc1ccccc1N1CCOCC1)c1cccs1 [MMV688845] the “Relative Bioluminescence (%)” value (2 µM compound) was 64.60% and the “Relative Bioluminescence (%)” value (10 µM compound) was 67.13%.
For Cc1ccccc1CN1CCC(O)(c2ccc(Cl)c(C(F)(F)F)c2)CC1 [MMV688846], the “Relative Bioluminescence (%)” value (2 µM compound) was 63.77% and the “Relative Bioluminescence (%)” value (10 µM compound) was 60.58%.
In the case of CC(C)(C)n1nc(Cc2ccc(F)c(Cl)c2)c2c(N)ncnc21 [MMV688852], the “Relative Bioluminescence (%)” value (2 µM compound) is reported as 73.28% and the “Relative Bioluminescence (%)” value (10 µM compound) is reported as 34.77%.
With CCOc1ccc2cc(-c3nn(C(C)(C)C)c(N)c3C(N)=O)cnc2c1 [MMV688853] the “Relative Bioluminescence (%)” value (2 µM compound) was 34.19% and the “Relative Bioluminescence (%)” value (10 µM compound) was 42.96%.
CCOc1ccc2cc(-c3nn(CC4CCN(C)CC4)c4ncnc(N)c34)ccc2c1 [MMV688854] was tested, and the “Relative Bioluminescence (%)” value (2 µM compound) was 92.07% and the “Relative Bioluminescence (%)” value (10 µM compound) was 66.13%.
With CN1CCN(c2cc(-c3ccc(F)cc3)nc(-c3ccncc3)n2)CC1 [MMV688888] the “Relative Bioluminescence (%)” value (2 µM compound) was 78.28% and the “Relative Bioluminescence (%)” value (10 µM compound) was 89.99%.
Clc1ccc(CCNc2cc(-c3ccccc3)nc3ncnn23)cc1 [MMV688889] was tested, and the “Relative Bioluminescence (%)” value (2 µM compound) was 73.23% and the “Relative Bioluminescence (%)” value (10 µM compound) was 59.03%.
For COc1cc(Br)cc2cc(C(=O)Nc3cccc(C(F)(F)F)c3)c(=O)oc12 [MMV688891], the “Relative Bioluminescence (%)” value (2 µM compound) was 75.74% and the “Relative Bioluminescence (%)” value (10 µM compound) was 64.36%.
OC[C@H]1O[C@@H](n2c3ccc(Cl)cc3c3c(-c4cc5ccccc5o4)ncnc32)C(O)[C@H]1O (stereo partly shown) [MMV688921] was tested, and the “Relative Bioluminescence (%)” value (2 µM compound) was 84.76% and the “Relative Bioluminescence (%)” value (10 µM compound) was 105.56%.
With CCc1nn(C)c(C(=O)NCc2ccc(Oc3ccc(C)cc3)cc2)c1Cl [MMV688934, Tolfenpyrad] the viability at 2 µM (2 µM compound) was 68.5% and the viability at 10 µM (10 µM compound) was 68.1%.
In the case of O=C(c1ccco1)N(CCCn1ccnc1)c1nc2c(Cl)cccc2s1 [MMV688936], the “Relative Bioluminescence (%)” value (2 µM compound) is reported as 80.40% and the “Relative Bioluminescence (%)” value (10 µM compound) is reported as 77.21%.
With CCOc1ccc(-c2nc(CNCCc3ccc(F)cc3)cs2)cc1 [MMV688938] the “Relative Bioluminescence (%)” value (2 µM compound) was 63.80% and the “Relative Bioluminescence (%)” value (10 µM compound) was 76.80%.
For Cc1ccc2nc(C)c(-c3ccn(Cc4ccccc4)n3)n2c1 [MMV688939], the “Relative Bioluminescence (%)” value (2 µM compound) was 75.51% and the “Relative Bioluminescence (%)” value (10 µM compound) was 51.85%.
In the case of COc1cc(CN2CCC3(C=Cc4ccccc43)CC2)cc2c1OCO2 [MMV688941], the “Relative Bioluminescence (%)” value (2 µM compound) is reported as 78.23% and the “Relative Bioluminescence (%)” value (10 µM compound) is reported as 74.74%.
With CC(C)(C)C(O)C(Oc1ccc(-c2ccccc2)cc1)n1cncn1 (stereo not shown) [MMV688942, Bitertanol] the viability at 2 µM (2 µM compound) was 21% and the viability at 10 µM (10 µM compound) was 15.4%.
In the case of CC1COC(Cn2cncn2)(c2ccc(Oc3ccc(Cl)cc3)cc2Cl)O1 (stereo not shown) [MMV688943, Difenoconazol], the “Relative Bioluminescence (%)” value (2 µM compound) is reported as 26.19% and the “Relative Bioluminescence (%)” value (10 µM compound) is reported as 8.96%.
For Cc1cc(NC(=O)c2ccc(Oc3ccc(Cl)cc3O)o2)no1 [MMV688955], the “Relative Bioluminescence (%)” value (2 µM compound) was 95.96% and the “Relative Bioluminescence (%)” value (10 µM compound) was 96.76%.
With CC(=O)OCC1OC([S-])C(OC(C)=O)C(OC(C)=O)C1OC(C)=O.CCP(CC)CC.[Au+] (stereo not shown) [MMV688978, Auranofin, reference compound] the “Relative Bioluminescence (%)” value (2 µM compound) was -2.60%, the “Relative Bioluminescence (%)” value (10 µM compound) was -2.20% and the EC50 (hit compounds from the axenic amastigote screen, S3 Table, read-out: EC50, Axenic Amastigotes) was 170 nM.
In the case of CCc1cc(=O)n(C)c(SC(C)C(=O)Nc2ccc(F)cc2)n1 (stereo not shown) [MMV688980], the “Relative Bioluminescence (%)” value (2 µM compound) is reported as 76.34% and the “Relative Bioluminescence (%)” value (10 µM compound) is reported as 48.08%.
CC(=O)Oc1ccccc1C(=O)Nc1ncc([N+](=O)[O-])s1 [MMV688991, Nitazoxanide, reference compound] showed a viability at 2 µM (2 µM compound) of 71.1% and a viability at 10 µM (10 µM compound) of 0.38%.
For [H]/N=C(/N)N[C@H]1[C@H](O)[C@@H](O)[C@H](O[C@@H]2O[C@@H](C)[C@](O)(C=O)[C@H]2O[C@@H]2O[C@@H](CO)[C@H](O)[C@@H](O)[C@@H]2NC)[C@@H](N/C(N)=N\[H])[C@@H]1O [MMV688994, Streptomycin, reference compound], the viability at 2 µM (2 µM compound) was 94% and the viability at 10 µM (10 µM compound) was 84.3%.
For Cc1ccc(S(=O)(=O)Nc2ccc(CN3CCN(C(=O)c4cccc(C#N)c4)CC3)cc2)cc1 [MMV689028], the “Relative Bioluminescence (%)” value (2 µM compound) was 54.14% and the “Relative Bioluminescence (%)” value (10 µM compound) was 72.62%.
COc1ccc(S(=O)(=O)Nc2ccc(CN3CCN(C(=O)c4cccc(C#N)c4)CC3)cc2)cc1 [MMV689029] was tested, and the “Relative Bioluminescence (%)” value (2 µM compound) was 67.41% and the “Relative Bioluminescence (%)” value (10 µM compound) was 57.59%.
In the case of Clc1ccc(CN2CCN(C3=NCCN3)CC2)cc1Cl [MMV689060], the “Relative Bioluminescence (%)” value (2 µM compound) is reported as 99.56% and the “Relative Bioluminescence (%)” value (10 µM compound) is reported as 112.63%.
CC(=O)Nc1ccc(-c2noc(CC3CCCN(Cc4cccc(F)c4C)C3)n2)cc1 (stereo not shown) [MMV689061] was tested, and the “Relative Bioluminescence (%)” value (2 µM compound) was 77.60% and the “Relative Bioluminescence (%)” value (10 µM compound) was 95.91%.
With FC(F)(F)c1ccc(N(c2cccnc2)C2CCN(c3ccc(C(F)(F)F)cn3)CC2)cc1 [MMV689243] the “Relative Bioluminescence (%)” value (2 µM compound) was 34.53% and the “Relative Bioluminescence (%)” value (10 µM compound) was 8.50%.
In the case of O=C([C@@H](c1ccc(Cl)cc1)c1cccnc1)N1CCN(c2ccc(C(F)(F)F)cc2)CC1 [MMV689244], the “Relative Bioluminescence (%)” value (2 µM compound) is reported as 23.97% and the “Relative Bioluminescence (%)” value (10 µM compound) is reported as 0.66%.
For Nc1ncnc2c1ncn2C[C@@H](O)[C@@H](O)C(=O)O [MMV689255, D-Eritadenine], the “Relative Bioluminescence (%)” value (2 µM compound) was 68.65% and the “Relative Bioluminescence (%)” value (10 µM compound) was 73.04%.
For CC(c1cc(Cl)cc(Cl)c1)N(C)c1ncc2c(N)nc(N)nc2n1 (stereo not shown) [MMV689437], the “Relative Bioluminescence (%)” value (2 µM compound) was 37.21% and the “Relative Bioluminescence (%)” value (10 µM compound) was 1.17%.
In the case of CNc1cc(C)nc(C2CN(C(=O)c3n[nH]c4ccccc34)CCO2)c1 (stereo not shown) [MMV689709], the “Relative Bioluminescence (%)” value (2 µM compound) is reported as 77.39% and the “Relative Bioluminescence (%)” value (10 µM compound) is reported as 68.10%.
For COc1nc2ccc(Br)cc2cc1[C@@H](c1ccccc1)[C@@](O)(CCN(C)C)c1cccc2ccccc12 [MMV689758, Bedaquiline, reference compound], the viability at 2 µM (2 µM compound) was 94.9% and the viability at 10 µM (10 µM compound) was 45.4%.
For COc1ccc(C2=NN(C3CCCCCC3)C(=O)[C@@H]3CC=CC[C@H]23)cc1OCCCCOc1ccc(-c2nn[nH]n2)cc1 [MMV690027], the “Relative Bioluminescence (%)” value (2 µM compound) was 96.72% and the “Relative Bioluminescence (%)” value (10 µM compound) was 33.47%.
For COc1ccc(C2=NN(C3CCCCCC3)C(=O)C2(C)C)cc1OCCCCOc1ccc(-c2nn[nH]n2)cc1 [MMV690028], the “Relative Bioluminescence (%)” value (2 µM compound) was 55.46% and the “Relative Bioluminescence (%)” value (10 µM compound) was 1.50%.
C[C@H](c1ccc2c(c1)CCCC2)N(C)c1ncc2c(N)nc(N)nc2n1 [MMV690103] was tested, and the “Relative Bioluminescence (%)” value (2 µM compound) was 59.86% and the “Relative Bioluminescence (%)” value (10 µM compound) was 0.48%.
CCc1ccc(C(NCc2nc(N)nc(N(C)C)n2)C(C)C)cc1 (stereo not shown) [MMV1019989] was tested, and the “Relative Bioluminescence (%)” value (2 µM compound) was 59.90% and the “Relative Bioluminescence (%)” value (10 µM compound) was 45.92%.
O=C(Nc1nc(-c2ccccn2)cs1)C1CC1c1ccccc1F (stereo not shown) [MMV1028806] was tested, and the “Relative Bioluminescence (%)” value (2 µM compound) was 58.01% and the “Relative Bioluminescence (%)” value (10 µM compound) was -0.60%.
For CNC(=O)CNc1nc(-c2ccccn2)nc2scc(-c3ccccc3)c12 [MMV1029203], the “Relative Bioluminescence (%)” value (2 µM compound) was 83.99% and the “Relative Bioluminescence (%)” value (10 µM compound) was 52.70%.
CCCn1c(NC(=O)c2ccc3ccccc3n2)nc2ccccc21 [MMV1030799] was tested, and the “Relative Bioluminescence (%)” value (2 µM compound) was 37.62% and the “Relative Bioluminescence (%)” value (10 µM compound) was -5.56%.
CCNC(=O)C(C)Nc1nc(-c2cccnc2)nc2sc(C)c(C)c12 (stereo not shown) [MMV1037162] was tested, and the “Relative Bioluminescence (%)” value (2 µM compound) was 83.26% and the “Relative Bioluminescence (%)” value (10 µM compound) was 85.96%.
Cc1ccc(-c2nc(CN(Cc3ccccn3)C(C)C)cs2)o1 [MMV1088520] was tested, and the “Relative Bioluminescence (%)” value (2 µM compound) was 70.72% and the “Relative Bioluminescence (%)” value (10 µM compound) was -3.27%.
With COc1cccn2c(C(=O)N3CCCCC3)c(C(F)(F)F)nc12 [MMV1110498] the “Relative Bioluminescence (%)” value (2 µM compound) was 66.34% and the “Relative Bioluminescence (%)” value (10 µM compound) was 77.35%.
